Measured values reported in US5696276A, “Process for preparing 5,8-dihydroxynaphthoquinone derivatives, novel 5,8-dihydroxynaphthoquinone derivatives and their use as anticancer agent” (Kuhnil Pharmaceutical Co., Ltd., priority 1993, dated 1997).
≈ marks a conversion by molar mass, not a printed value. Read-outs that look alike come from different tables or passages of the source.

How the values were obtained:
HL-60 cells = experiment: Cytotoxic activity against HL-60 cells; assay type: cell-based; conditions: Homo sapiens, read-out: ED50, cytotoxic activity against HL-60
Description: As in the test for the cytotoxic activity against L1210 cells, the test samples were dissoved in ethanol or dimethylsulfoxide in a certain concentration. 0.1 ml of the sample solution was mixed with 0.9 ml of a fresh medium to prepare the dilutions. To each two test tubes having a screw cap were added 100, 50, 25 μl, respectively, of the sample dilutions by means of a micropipet. To each test tube for the test group and the control group (2√n: n=number of the samples) was added 5 ml of the dilutions of HL-60 cells and K-562 cells which were cultured and activated before 24 hours from the beginning of experiment and then diluted in a concentration of 1×10^5 cells/mi. All test tubes were cultured for 48 hours in a CO2 incubator at 37° C. and then the number of cells was counted using a haemacytometer.
The ED50 value is defined as a concentration (μg/ml) of the sample which inhibits the growth of cancer cells by 50% of the control group and determined according to a method described in NIC's mannual (NIC=National Cancer Institue, U.S.A.). The growth rate Y(%) of cells in the presence of the test sample in each concentration was calculated according to the followign equation: […]
In the above equation, T means the average cell number per ml in the test group after incubation for 48 hours in the presence of the test samples in each concentration, C means the average cell number per ml in the control group after incubation for 48 hours, and Co means the average cell number per ml in the control group at the beginning of incubation. The Y(%) value at each concentration and log10 value of each concentration were obtained and the regression curve was constructed according to the following equation from those obtained values. In this case, when all the Y(%) value obtained at each concentration is greater than 55% or lower than 45%, the experiment was repeatedly conducted.
To construct the regression curve Y=A+BX the values A and B were obtained using the following equation. [formula]
In the above, the value N is the number of selected points which is greater than 2 and lower than, or identical with, the number of cencentration of the test sample, Xi is log(concentration) i, and Yi is the growth ratio at (concentration)i. The value of ED50 was obtained for those obtained slope and intercept.

S-180 sarcoma cells = experiment: Animal experiment using Sarcoma S-180 cells (survival of mouse); assay type: in vivo, male ICR mouse; conditions: for responders at 10 µmol/kg / response vs control in vivo at 10 µmol/kg / responders at 15 µmol/kg / response vs control in vivo at 15 µmol/kg: ip, S-180 ICR mouse, intraperitoneal, 7 to 8 injections; for responders at 10 µmol/kg / response vs control in vivo at 10 µmol/kg: daily dose 10 μmole (mg/kg/day given per compound); for responders at 10 µmol/kg / responders at 15 µmol/kg: read-out: Number of mouse survived for 50 days (converted); for responders at 15 µmol/kg / response vs control in vivo at 15 µmol/kg: daily dose 15 μmole (mg/kg/day given per compound)
Outline: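 Male ICR mice (20 to 25 g) received intraperitoneal transplants of 0.1 ml S-180 cell suspension (10^7 cells/ml), prepared from ascites by washing in cold physiological saline. After 24 hours, groups of 8 to 9 mice received 7 to 8 ip injections of sample in dimethylsulfoxide diluted with saline. Controls got 2% dimethylsulfoxide-saline. Survival (T/C, %) was scored against control death.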

L1210 cells = experiment: Cytotoxic activity against L1210 cells; assay type: cell-based; conditions: Mus musculus, read-out: ED50, cytotoxic activity against L1210
Outline: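 Log-phase L1210 cells (5×10^4 cells/ml) in Fisher medium exposed 48 h at 37 °C in CO2 to three dilutions of sample dissolved in ethanol or DMSO. Cells counted by haemacytometer; growth relative to control; ED50 (μg/ml) from linear regression of growth % on log concentration.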

A549 cancer cells = experiment: Cytotoxic activity against A549 cancer cells (sulforhodamin B method); assay type: cell-based; conditions: Homo sapiens, read-out: ED50, cytotoxic activity against A549
Outline: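 Cells seeded at 8×10^4 per well, attached 24 h, then exposed 48 h to six log-spaced concentrations in triplicate. TCA-fixed, SRB-stained, OD read at 520 nm; growth inhibition computed relative to time-zero and untreated counts, IC50 from regression.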

[1] = A549 cells, SRB method, 48 hours

Structure (SMILES) | IC50 (HL-60 cells; HL-60 cells, 48 hours, 37° C.) [µg/mL] | responders at 10 µmol/kg (S-180 sarcoma cells; 1200 h) [%] | response vs control in vivo at 10 µmol/kg (S-180 sarcoma cells; read-out: T/C) [%] | IC50 (L1210 cells; L1210 cells, 48 hours, 37° C.) [µg/mL] | IC50 (A549 cancer cells; [1]) [µg/mL] | responders at 15 µmol/kg (S-180 sarcoma cells; 1200 h) [%] | response vs control in vivo at 15 µmol/kg (S-180 sarcoma cells; read-out: T/C) [%] | IC50 (HL-60 cells; HL-60, 48 h) [µg/mL] | responders at 5 µmol/kg (S-180 sarcoma cells; Mus musculus, S-180, ip, 1200 h, read-out: Number of mouse survived for 50 days) [%] | response vs control in vivo at 5 µmol/kg (S-180 sarcoma cells; Mus musculus, S-180, ip, read-out: T/C) [%] | IC50 (L1210 cells; L1210, 48 h) [µg/mL] | IC50 (A549 cancer cells; A549, 48 h) [µg/mL]
CC(C)=CCC(OC(=O)CCl)C1=CC(=O)c2c(O)ccc(O)c2C1=O (centres unmarked) [2-(1-monochloroacetyloxy-4-methyl-3-pentenyl)-5,8-dihydroxy-1,4-naphthoquinone] | 0.3 (≈ 0.822 µM) | 0 | 102 | 0.12 (≈ 0.329 µM) | 4 (≈ 11 µM) | – | – | – | – | – | – | –
CCCC(=O)OC(CC=C(C)C)C1=CC(=O)c2c(O)ccc(O)c2C1=O (centres unmarked) [2-(1-n-butanoyloxy-4-methyl-3-pentenyl)-5,8-dihydroxy-1,4-naphthoquinone] | 0.1 (≈ 0.279 µM) | 0 | 181 | 0.01 (≈ 0.0279 µM) | 2.5 (≈ 6.98 µM) | – | – | – | – | – | – | –
CCCCCCCCCC(=O)OC(CC=C(C)C)C1=CC(=O)c2c(O)ccc(O)c2C1=O (centres unmarked) [2-(1-n-decanoyloxy-4-methyl-3-pentenyl)-5,8-dihydroxy-1,4-naphthoquinone] | 1.1 (≈ 2.49 µM) | – | – | 0.7 (≈ 1.58 µM) | 15 (≈ 33.9 µM) | 0 | 110 | – | – | – | – | –
CCCCCC(=O)OC(CC=C(C)C)C1=CC(=O)c2c(O)ccc(O)c2C1=O (centres unmarked) [2-(1-n-hexanoyloxy-4-methyl-3-pentenyl)-5,8-dihydroxy-1,4-naphthoquinone] | 0.7 (≈ 1.81 µM) | 33.3 | 214 | 0.2 (≈ 0.518 µM) | 2.6 (≈ 6.73 µM) | – | – | – | – | – | – | –
CCCCCCCCC(=O)OC(CC=C(C)C)C1=CC(=O)c2c(O)ccc(O)c2C1=O (centres unmarked) [2-(1-n-nonanoyloxy-4-methyl-3-pentenyl)-5,8-dihydroxy-1,4-naphthoquinone] | 1 (≈ 2.33 µM) | 0 | 206 | 0.5 (≈ 1.17 µM) | 6.9 (≈ 16.1 µM) | – | – | – | – | – | – | –
CCCCCCCC(=O)OC(CC=C(C)C)C1=CC(=O)c2c(O)ccc(O)c2C1=O (centres unmarked) [2-(1-n-octanoyloxy-4-methyl-3-pentenyl)-5,8-dihydroxy-1,4-naphthoquinone] | 0.7 (≈ 1.69 µM) | – | – | 0.2 (≈ 0.483 µM) | 4.3 (≈ 10.4 µM) | 22.2 | 235 | – | – | – | – | –
CCCCC(=O)OC(CC=C(C)C)C1=CC(=O)c2c(O)ccc(O)c2C1=O (centres unmarked) [2-(1-n-pentanoyloxy-4-methyl-3-pentenyl)-5,8-dihydroxy-1,4-naphthoquinone] | 0.6 (≈ 1.61 µM) | 0 | 165 | 0.2 (≈ 0.537 µM) | 2.5 (≈ 6.71 µM) | – | – | – | – | – | – | –
CCC(=O)OC(CC=C(C)C)C1=CC(=O)c2c(O)ccc(O)c2C1=O (centres unmarked) [2-(1-n-propionyloxy-4-methyl-3-pentenyl)-5,8-dihydroxy-1,4-naphthoquinone] | – | – | – | – | – | – | – | 0.04 (≈ 0.116 µM) | 0 | 100 | 0.03 (≈ 0.0871 µM) | 1.9 (≈ 5.52 µM)
CCCCCCCCCCCCCCCC(=O)OC(CC=C(C)C)C1=CC(=O)c2c(O)ccc(O)c2C1=O (centres unmarked) [2-(1-palmityloxy-4-methyl-3-pentenyl)-5,8-dihydroxy-1,4-naphthoquinone] | 3 (≈ 5.7 µM) | – | – | 2.1 (≈ 3.99 µM) | > 20 | 0 | 109 | – | – | – | – | –
CC(C)=CCC(OC(=O)Cc1ccccc1)C1=CC(=O)c2c(O)ccc(O)c2C1=O (centres unmarked) [2-(1-phenylacetyloxy-4-methyl-3-pentenyl)-5,8-dihydroxy-1,4-naphthoquinone] | 0.4 (≈ 0.984 µM) | 0 | 183 | 0.1 (≈ 0.246 µM) | 1.1 (≈ 2.71 µM) | – | – | – | – | – | – | –
